Results on eight compounds are retold here after ChEMBL document CHEMBL3272305, “Synthesis and comparative skeletal muscle relaxant activity of some 2,4-imidazolidinediones and their corresponding 5-hydroxy-2,4-imidazolidinediones” (J Med Chem, 1978).

Active and inactive are the calls of the source. No cut-off for these calls is given here. A value given as a limit tells only on which side of the number the result lay.

The first data set has as its system Rattus norvegicus. Nature of the data set: Inhibition of gastrocnemius twitch in Sprague-Dawley rat at cumulative dose of 36.6 mg/kg, iv relative to control.
Conditions: not given
In kind it is functional.
`N#Cc1ccc(-c2ccc(/C=N/N3CC(=O)NC3=O)o2)cc1`: the inhibition in vivo at 36.6 mg/kg was -76%.
The same measure, in the same setting: to `O=C1NC(=O)N(/N=C/c2ccc(-c3cccc(C(F)(F)F)c3)o2)C1O` (configuration not stated) belongs -57%; to `N#Cc1ccc(-c2ccc(/C=N/N3C(=O)NC(=O)C3O)o2)cc1` (configuration not stated), -69%.
Still for that read-out and setting: to `Nc1ccc(-c2ccc(/C=N/N3C(=O)NC(=O)C3O)o2)cc1` (configuration not stated) belongs -67%; to `O=C1NC(=O)N(/N=C/c2ccc(-c3ccc(Cl)cc3)o2)C1O` (configuration not stated), -77%; to `O=C1NC(=O)N(/N=C/c2ccc(-c3ccc([N+](=O)[O-])cc3)o2)C1O` (configuration not stated), -76%.
On the same count and under the same terms, to `O=C1CN(/N=C/c2ccc(-c3ccc([N+](=O)[O-])cc3)o2)C(O)=N1` [DANTROLENE] belongs -80%; to `CC(=O)Nc1ccc(-c2ccc(/C=N/N3C(=O)NC(=O)C3O)o2)cc1` (configuration not stated), -10%.

Tested on in the next data set: not listed separately
Description: (§1) Inhibition of twitch in Charles River rat diaphragm at 60 mg/L after 5 mins.
Conditions: not given
The format is functional.
`N#Cc1ccc(-c2ccc(/C=N/N3CC(=O)NC3=O)o2)cc1`: the inhibition at 60 µg/mL is at least 40%.
Same read-out and setting: then `O=C1NC(=O)N(/N=C/c2ccc(-c3cccc(C(F)(F)F)c3)o2)C1O` (configuration not stated), with at least 40%; and `N#Cc1ccc(-c2ccc(/C=N/N3C(=O)NC(=O)C3O)o2)cc1` (configuration not stated), with at least 40%.
The same measure, in the same setting: then `Nc1ccc(-c2ccc(/C=N/N3C(=O)NC(=O)C3O)o2)cc1` (configuration not stated), with at least 40%; and `O=C1NC(=O)N(/N=C/c2ccc(-c3ccc(Cl)cc3)o2)C1O` (configuration not stated), with at least 40%; and `O=C1NC(=O)N(/N=C/c2ccc(-c3ccc([N+](=O)[O-])cc3)o2)C1O` (configuration not stated), with at least 40%.
Still for that read-out and setting: then `O=C1CN(/N=C/c2ccc(-c3ccc([N+](=O)[O-])cc3)o2)C(O)=N1` [DANTROLENE], with at least 40%.

The species entered for the next data set is Rattus norvegicus. The data set is described as §1. The format is functional.
Conditions: not given
Turning to `CC(=O)Nc1ccc(-c2ccc(/C=N/N3C(=O)NC(=O)C3O)o2)cc1` (configuration not stated), the inhibition entry is “inactive”.

Tested on in a further data set: not listed separately
Description: Therapeutic index, ratio of LD50 for albino mouse to ED50 for induction of straub tail relaxation in albino mouse. The format is organism-based. Particulars: in vivo, read-out: Ratio LD50/ED50.
As for `N#Cc1ccc(-c2ccc(/C=N/N3C(=O)NC(=O)C3O)o2)cc1` (configuration not stated), the selectivity ratio worked out at 0.14.
On to `O=C1CN(/N=C/c2ccc(-c3ccc([N+](=O)[O-])cc3)o2)C(O)=N1` [DANTROLENE], for which the selectivity ratio is 124.

A further data set deals with Mus musculus. Description: Induction of skeletal muscle relaxation in ip dosed albino mouse after 60 mins. The format is functional. The conditions noted are these: 1 h.
Compound `N#Cc1ccc(-c2ccc(/C=N/N3CC(=O)NC3=O)o2)cc1` came in with an ED50 of over 1000 mg/kg.
Regarding `O=C1NC(=O)N(/N=C/c2ccc(-c3cccc(C(F)(F)F)c3)o2)C1O` (configuration not stated), the ED50 came to 244 mg/kg.
On the same count and under the same terms, then `N#Cc1ccc(-c2ccc(/C=N/N3C(=O)NC(=O)C3O)o2)cc1` (configuration not stated), with 156 mg/kg.
`Nc1ccc(-c2ccc(/C=N/N3C(=O)NC(=O)C3O)o2)cc1` (configuration not stated) yielded an ED50 of over 1000 mg/kg.
On the same count and under the same terms, then `O=C1NC(=O)N(/N=C/c2ccc(-c3ccc(Cl)cc3)o2)C1O` (configuration not stated), with over 1000 mg/kg; and `O=C1NC(=O)N(/N=C/c2ccc(-c3ccc([N+](=O)[O-])cc3)o2)C1O` (configuration not stated), with over 1000 mg/kg; and `O=C1CN(/N=C/c2ccc(-c3ccc([N+](=O)[O-])cc3)o2)C(O)=N1` [DANTROLENE], with 83 mg/kg.
On the same count and under the same terms, to `CC(=O)Nc1ccc(-c2ccc(/C=N/N3C(=O)NC(=O)C3O)o2)cc1` (configuration not stated) belongs over 1000 mg/kg.

The species entered for another data set is Mus musculus. Nature of the data set: Induction of muscle incoordination in mouse after 30 mins by rotarod test. In kind it is organism-based, Muscle tissue. The conditions noted are these: in vivo, 0.5 h.
Turning to `N#Cc1ccc(-c2ccc(/C=N/N3CC(=O)NC3=O)o2)cc1`, the ED50 turned out to be 91 mg/kg.
In turn, `O=C1NC(=O)N(/N=C/c2ccc(-c3cccc(C(F)(F)F)c3)o2)C1O` (configuration not stated) came in with an ED50 of 85 mg/kg.
In turn, `N#Cc1ccc(-c2ccc(/C=N/N3C(=O)NC(=O)C3O)o2)cc1` (configuration not stated) displayed an ED50 of 96 mg/kg.
`Nc1ccc(-c2ccc(/C=N/N3C(=O)NC(=O)C3O)o2)cc1` (configuration not stated): the ED50 is over 1000 mg/kg.
In turn, `O=C1NC(=O)N(/N=C/c2ccc(-c3ccc(Cl)cc3)o2)C1O` (configuration not stated) came in with an ED50 of 63 mg/kg.
On the same count and under the same terms, to `O=C1NC(=O)N(/N=C/c2ccc(-c3ccc([N+](=O)[O-])cc3)o2)C1O` (configuration not stated) belongs 171 mg/kg.
The same measure, in the same setting: to `O=C1CN(/N=C/c2ccc(-c3ccc([N+](=O)[O-])cc3)o2)C(O)=N1` [DANTROLENE] belongs 153 mg/kg.
The same measure, in the same setting: to `CC(=O)Nc1ccc(-c2ccc(/C=N/N3C(=O)NC(=O)C3O)o2)cc1` (configuration not stated) belongs over 1000 mg/kg.

The species named for the next data set is Mus musculus. Nature of the data set: Muscle relaxant efficacy index, ratio of ED50 for muscle incoordination in mouse to ED50 for induction of straub tail relaxation in albino mouse.
Conditions: not given
In the case of `N#Cc1ccc(-c2ccc(/C=N/N3CC(=O)NC3=O)o2)cc1`, the “Ratio ED50” value is given as under 0.09.
Still for that read-out and setting: to `O=C1NC(=O)N(/N=C/c2ccc(-c3cccc(C(F)(F)F)c3)o2)C1O` (configuration not stated) belongs under 0.09; to `N#Cc1ccc(-c2ccc(/C=N/N3C(=O)NC(=O)C3O)o2)cc1` (configuration not stated), 0.13; to `O=C1NC(=O)N(/N=C/c2ccc(-c3ccc(Cl)cc3)o2)C1O` (configuration not stated), under 0.06.
On the same count and under the same terms, then `O=C1NC(=O)N(/N=C/c2ccc(-c3ccc([N+](=O)[O-])cc3)o2)C1O` (configuration not stated), with under 0.17; and `O=C1CN(/N=C/c2ccc(-c3ccc([N+](=O)[O-])cc3)o2)C(O)=N1` [DANTROLENE], with 2.7.

A further data set concerns Rattus norvegicus. Description: Inhibition of gastrocnemius twitch in iv dosed Sprague-Dawley rat. In kind it is functional.
Conditions: not given
As for `N#Cc1ccc(-c2ccc(/C=N/N3CC(=O)NC3=O)o2)cc1`, the 50% effect level (ED50) was put at a dose of 20 µmol/kg.
The same measure, in the same setting: to `O=C1NC(=O)N(/N=C/c2ccc(-c3cccc(C(F)(F)F)c3)o2)C1O` (configuration not stated) belongs 96 µmol/kg; to `N#Cc1ccc(-c2ccc(/C=N/N3C(=O)NC(=O)C3O)o2)cc1` (configuration not stated), 25 µmol/kg; to `Nc1ccc(-c2ccc(/C=N/N3C(=O)NC(=O)C3O)o2)cc1` (configuration not stated), 39 µmol/kg.
The compound `O=C1NC(=O)N(/N=C/c2ccc(-c3ccc(Cl)cc3)o2)C1O` (configuration not stated) showed an ED50 of 16 µmol/kg.
`O=C1NC(=O)N(/N=C/c2ccc(-c3ccc([N+](=O)[O-])cc3)o2)C1O` (configuration not stated): the ED50 was found to be 15 µmol/kg.
On the same count and under the same terms, then `O=C1CN(/N=C/c2ccc(-c3ccc([N+](=O)[O-])cc3)o2)C(O)=N1` [DANTROLENE], with 7 µmol/kg; and `CC(=O)Nc1ccc(-c2ccc(/C=N/N3C(=O)NC(=O)C3O)o2)cc1` (configuration not stated), with over 107 µmol/kg.

In the next data set the test system is Mus musculus. Nature of the data set: Induction of skeletal muscle relaxation in po dosed albino mouse after 60 mins. In kind it is functional. Particulars: 1 h.
Take `N#Cc1ccc(-c2ccc(/C=N/N3CC(=O)NC3=O)o2)cc1`: the ED50 is over 1000 mg/kg.
Still for that read-out and setting: to `O=C1NC(=O)N(/N=C/c2ccc(-c3cccc(C(F)(F)F)c3)o2)C1O` (configuration not stated) belongs 166 mg/kg; to `N#Cc1ccc(-c2ccc(/C=N/N3C(=O)NC(=O)C3O)o2)cc1` (configuration not stated), over 1000 mg/kg; to `Nc1ccc(-c2ccc(/C=N/N3C(=O)NC(=O)C3O)o2)cc1` (configuration not stated), over 1000 mg/kg.
Still for that read-out and setting: to `O=C1NC(=O)N(/N=C/c2ccc(-c3ccc(Cl)cc3)o2)C1O` (configuration not stated) belongs over 1000 mg/kg.
The same measure, in the same setting: then `O=C1NC(=O)N(/N=C/c2ccc(-c3ccc([N+](=O)[O-])cc3)o2)C1O` (configuration not stated), with over 1000 mg/kg; and `O=C1CN(/N=C/c2ccc(-c3ccc([N+](=O)[O-])cc3)o2)C(O)=N1` [DANTROLENE], with 490 mg/kg; and `CC(=O)Nc1ccc(-c2ccc(/C=N/N3C(=O)NC(=O)C3O)o2)cc1` (configuration not stated), with over 1000 mg/kg.

A further data set is filed under the species Mus musculus. Nature of the data set: Induction of straub tail relaxation in albino mouse assessed as gain of righting reflex in 1 min.
Conditions: not given
The format is functional.
Turning to `N#Cc1ccc(-c2ccc(/C=N/N3CC(=O)NC3=O)o2)cc1`, the ED50 is over 1000 mg/kg.
Same read-out and setting: then `O=C1NC(=O)N(/N=C/c2ccc(-c3cccc(C(F)(F)F)c3)o2)C1O` (configuration not stated), with over 1000 mg/kg.
Same read-out and setting: then `N#Cc1ccc(-c2ccc(/C=N/N3C(=O)NC(=O)C3O)o2)cc1` (configuration not stated), with 743 mg/kg.
Same read-out and setting: then `Nc1ccc(-c2ccc(/C=N/N3C(=O)NC(=O)C3O)o2)cc1` (configuration not stated), with over 1000 mg/kg; and `O=C1NC(=O)N(/N=C/c2ccc(-c3ccc(Cl)cc3)o2)C1O` (configuration not stated), with over 1000 mg/kg.
For the compound `O=C1NC(=O)N(/N=C/c2ccc(-c3ccc([N+](=O)[O-])cc3)o2)C1O` (configuration not stated), the ED50 was over 1000 mg/kg.
On the same count and under the same terms, to `O=C1CN(/N=C/c2ccc(-c3ccc([N+](=O)[O-])cc3)o2)C(O)=N1` [DANTROLENE] belongs 56 mg/kg; to `CC(=O)Nc1ccc(-c2ccc(/C=N/N3C(=O)NC(=O)C3O)o2)cc1` (configuration not stated), over 1000 mg/kg.

Tested on in another data set: not listed separately
Nature of the data set: Toxicity in albino mouse after 72 hrs. The format is organism-based. The conditions noted are these: in vivo.
For `N#Cc1ccc(-c2ccc(/C=N/N3CC(=O)NC3=O)o2)cc1`, the LD50 at 72 h was 2340 mg/kg.
Same read-out and setting: to `O=C1NC(=O)N(/N=C/c2ccc(-c3cccc(C(F)(F)F)c3)o2)C1O` (configuration not stated) belongs 563 mg/kg; to `N#Cc1ccc(-c2ccc(/C=N/N3C(=O)NC(=O)C3O)o2)cc1` (configuration not stated), 104 mg/kg.
Still for that read-out and setting: to `Nc1ccc(-c2ccc(/C=N/N3C(=O)NC(=O)C3O)o2)cc1` (configuration not stated) belongs 192 mg/kg.
With `O=C1NC(=O)N(/N=C/c2ccc(-c3ccc(Cl)cc3)o2)C1O` (configuration not stated), the LD50 at 72 h turned out to be 522 mg/kg.
For `O=C1NC(=O)N(/N=C/c2ccc(-c3ccc([N+](=O)[O-])cc3)o2)C1O` (configuration not stated), the LD50 at 72 h is over 5000 mg/kg.
In turn, `O=C1CN(/N=C/c2ccc(-c3ccc([N+](=O)[O-])cc3)o2)C(O)=N1` [DANTROLENE] displayed an LD50 at 72 h of over 7000 mg/kg.
On the same count and under the same terms, to `CC(=O)Nc1ccc(-c2ccc(/C=N/N3C(=O)NC(=O)C3O)o2)cc1` (configuration not stated) belongs 673 mg/kg.
